Entries after “also recorded” stand apart in the source; their conditions may differ. No end group written: not given here.
Legend:
hAKPC-P+hGEC GOAC = assay: α-MSH drug rescue of MN serum effect, albumin permselectivity assay; assay type: cell-based, human; settings: 10 ng/ml α-MSH with 0.5% MN serum (MN3), 24 h; filtrate at 60 min
Protocol: (§1) An albumin and inulin permeability assay were established to evaluate the efficiency of the created GFB. The number of chips used for each experiment is described in the corresponding figure legend. Media was aspirated from the bottom inlet and outlet, to which PBS was added. Then, media from the top inlet and outlet was aspirated. Fifty microliters albumin-FITC (Millipore Sigma, c #A9771) or inulin-FITC (10 mg/ml, Sigma, c #F3272) was added to the top inlet and outlet, such that the orientation of filtration would be simulated as in native blood flow: from endothelial cells, through podocytes, and into the urinary space of Bowman's capsule. […] Absorbance was measured using the Perkin Elmer Victor 3 plate reader using Wallac 1420 workstation software (fluorescein 485/535, 0.1 s). For long-term studies, the same chips were evaluated for permselectivity at respectively 1, 2, 3, and 4 weeks (hAKPC and hpPOD; hiPOD were evaluated for weeks 1 and 2 since after this time frame these chips are not properly functioning) after hGEC seeding. […] After each reading, as described above, the albumin-FITC solution and PBS were removed from the top and bottom inlets and outlets and chips were carefully rinsed with PBS twice to remove excess albumin-FITC before returning to fresh culture medium. […] Efficiency at each time point is expressed as %±SEM. […]

[1] = tested on: GOAC (human podocytes + hGEC glomerular filtration barrier); assay: Albumin permselectivity assay on the GOAC after puromycin aminonucleoside (PAN) injury; assay type: cell-based; settings: PAN 5 days (10 μg/ml, 10 mg/ml elsewhere in the source); albumin-FITC 40 mg/ml; hAKPC-P+hGEC, hiPOD+hGEC, hpPOD+hGEC chips
Protocol: as §1

podocytes in GOAC = assay: F-actin staining of podocytes in the GOAC before and after PAN damage; assay type: cell-based, human; settings: after PAN damage; hAKPC-P+hGEC, hiPOD+hGEC, hpPOD+hGEC chips
Protocol: Immunofluorescent staining was performed on OrganoPlate™ and chamber slides of representative cell types: following fixation by 4% paraformaldehyde (Santa Cruz Biotechnology c #sc-281692) and serial washes with PBS. Chips/wells of interest were prepared for staining by blocking with 5% bovine serum albumin (Jackson ImmunoResearch Lab, c #001-000-162) in PBS for 30 min. Primary, secondary, and pre-conjugated antibodies were diluted in 2.5% BSA Jackson ImmunoResearch Lab. c #001-000-162) as indicated in Table 1. Thirty microliters of solution were added to the top and bottom inlets and outlets of the chips or 100 μl of solution was added directly into the chamber slide wells. Primary antibodies were incubated at RT for 1 h; following serial washes, secondary antibodies were incubated at RT for 30 min. After a final series of washes in PBS, DAPI was applied (1:1000 in PBS; BD Pharmingen, c #564907) and the OrganoPlate™ or the wells were stored at 4° C. until imaged by confocal microscopy (Zeiss 710 microscope) and processed using the ZEN10 software.
In all, 10 μg/ml of PAN, a nephrotoxic molecule (Cayman Chemical c #15509), was supplemented to the media for 5 days. Media without PAN was used as a control. […] After PAN injury, damage was assessed using the albumin assay performed on the chip as described above.

## α-Melanocyte-stimulating hormone (SYSMEHFRWGKPV; ends and bridges not checked; UniProt P01189 138-150, looked up) [α-MSH]
hAKPC-P+hGEC GOAC
  proteinuria (albumin-FITC leakage) elicited by MN serum: prevented proteinuria elicited by MN serum; also recorded: prevented the proteinuric effects of MN sera

## CN(C)c1ncnc2c1ncn2[C@@H]1O[C@H](CO)[C@@H](N)[C@H]1O [PAN, puromycin aminonucleoside]
[1]
  albumin permselectivity / albumin leakage (fluorescein absorbance in filtrate after 60 min): loss of permselectivity for albumin; also recorded: marked and statistically significant increase
Podocytes in GOAC
  podocyte cytoskeleton (F-actin staining): cytoskeleton rearrangement; also recorded: widespread disruption of the cytoskeleton
